Data set [1] relates to Caco-2 cells. Kind of data set: ATP assay (CellTiter-Glo) cytotoxicity. The class given is cell-based. The procedure:
(§1) Caco-2 cells were purchased from American Type Culture Collection (ATCC, USA) and maintained in Dulbecco's Modified Eagles Medium (DMEM) supplemented with 15% filtered sterile foetal bovine serum. Cells were incubated at 37° C. and 5% CO2 and were routinely sub-cultured every 4 days when 90% confluent. Cell count and viability was determined using a Countess automated cell counter (Invitrogen).
(§2) Caco-2 cells were seeded at a density of 1.0×10^4 cells/100 μl in DMEM supplemented with 15% FBS into each well of a 96 well plate (Nunclon, Denmark) and incubated at 37° C. and 5% CO2. Cells from 4 separate flasks of biological replicates of each cell type were used (N1-4) to improve statistical power. Media was then aspirated from column 1 and replaced with media containing each polydendron or aqueous Nile Red solution at an equivalent 1 μM Nile Red concentration then diluted 1:1 in media across the plate up to column 11. Column 12 served as a negative control and consisted of media and untreated cells. Following polydendron addition, the plates were incubated for 24 hours or 120 hours at 37° C., 5% CO2 prior to assessment of cytotoxicity.
Following incubation of treated plates for 24 h or 120 h, cells were equilibrated to room temperature for approximately 30 minutes. All but 20 μl of media was removed from each well and 20 μl CellTiter-Glo® (Promega, UK) reagent was added. All reagents were made fresh and in accordance with the manufacturer's instructions. Plates were put on an orbital shaker for 10 minutes to mix contents and allow for stabilisation of luminescence signal. Luminescence was then measured using a Tecan Genios plate reader (Tecan Magellan, Austria).
Background: Cellular ATP, detected with luciferase, serves as a proxy for viable cell number.

The subject of data set [2] is Caco-2 cell monolayers. In words: Transcellular permeability of Nile Red across Caco-2 monolayers. The class given is in vitro ADME. Particulars: 1 hour incubation. The method, then: Transwells were seeded with 3.5×10^4 cells per well and propagated to a monolayer over a 21 day period, during which media in the apical and basolateral wells was changed every other day. Trans-epithelial electrical resistance (TEER) values were monitored until they were >1300Ω. 1 μM of Nile Red polydendron or 1 μM aqueous Nile Red was added to the apical chamber of 4 wells and the basolateral chamber of 4 wells to quantify transport in both Apical to Basolateral (A>B) and Basolateral to Apical (B>A) direction and sampled on an hourly basis over a 4 h time period. Apparent permeability coefficient was then determined by the amount of compound transported over time using the equation: […]
where (dQ/dt) is the amount per time (nmol·sec^−1), A is the surface area of the filter and C0 is the starting concentration of the donor chamber (1 μM).
100 μl of each collected sample was mixed with 900 μl acetone, vortexed, sonicated for 6 minutes and centrifuged at 13300 rpm for 3 minutes. The supernatant was completely dried in a vacuum centrifuge at 30° C. until the dry solid sample was left. This was reconstituted in 150 μl acetonitrile, transferred to a 96-well black walled, flat bottomed plate and measured for fluorescence intensity excitation wavelength 480 nm, emission wavelength 560 nm using a Tecan Genios plate reader (Tecan Magellan, Austria).

Data set [3] has as its system Caco-2 cells. In words: MTT assay cytotoxicity. The class given is cell-based. The procedure: as §1, §2
Following incubation of treated plates for 24 h or 120 h, 20 μl of 5 mg ml^−1 MTT reagent was added to each well and incubated for 2 hours. Subsequently, 100 μL MTT lysis buffer (50% N—N-Dimethylformamide in water containing 20% SDS, 2.5% glacial acetic acid and 2.5% hydrochloric acid, pH 4.7) was added to each well to lyse overnight at 37° C., 5% CO2. Following incubation the absorbance of each well was read using a Tecan Genosis plate reader at 560 nm (Tecan Magellan, Austria).
Background: Formazan colour is commonly taken as a measure of viable cells.

With `CCN(CC)c1ccc2nc3c4ccccc4c(=O)cc-3oc2c1` [aqueous Nile Red, Nile red], the “effect on ATP presence in Caco-2 cells” value in data set [1] (24 hour incubation, compared to untreated cells) is on record as “ATP presence was not affected”. In data set [1] (120 hour incubation, compared to untreated cells), the “effect on viability of Caco-2 cells (ATP assay)” value is “viability was not affected”. For the same compound, in data set [1] (Caco-2 cells, 120 hour incubation, FIG. 9), the “EC50, ATP assay” value was “No EC50”. Also, the “A > B/B > A ratio” value in data set [2] was 3.7140. Also, in data set [3] (24 hour incubation, compared to untreated cells, range of concentrations investigated), the “effect on metabolic turnover of Caco-2 cells (MTT)” value was “did not affect metabolic turnover”. The “effect on viability of Caco-2 cells (MTT)” value in data set [3] (120 hour incubation, range of concentrations investigated) was “did not affect the viability”. Also, in data set [3] (Caco-2 cells, 120 hour incubation, FIG. 7), the “EC50, MTT assay” value is recorded as “No EC50”.

The values above are taken from patent US20160159954A1, “POLYDENDRONS” (The Univeristy of Liverpool, priority 2013, published 2016).
